# Source: patent US20240246955A1, “TROPOMYOSIN RECEPTOR KINASE (TRK) DEGRADATION COMPOUNDS AND METHODS OF USE” (CULLGEN (SHANGHAI), INC., priority 2021, published 2024)
# Legend:
# Format in all cases: cell-based
# KM12 cells = assay: KM12 cell viability assay (CellTiter-Glo); conditions: Homo sapiens, 72 h; KM12 cells, 3 days, CellTiter-Glo
# How it was run: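 KM12 cells, 5000 per well, treated 3 days with 11-point 3-fold serial dilutions of heterobifunctional compounds. Viability by CellTiter-Glo luminescence, normalized to untreated cells; IC50 from least-squares nonlinear regression.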
# wildtype TRKA protein = target: T1, wildtype TRKA protein (Homo sapiens, UniProt P04629); assay: Wildtype TRKA degradation in HEL cells (Western blot); conditions: 0.1 nM to 1000 nM, 16 hours, Western blot (FIG. 4A)
# T1 construct: HEL cells expressing endogenous TRKA; endogenous in cells; host or cells: HEL erythroleukemia cells
# Method: HEL cells were treated with heterobifunctional compounds CPD-019 and CPD-002 at 10 nM or 100 nM for 16 hours.
# (§1) HEL cells expressing endogenous TRKA, and NIH3T3-TRKB and NIH3T3-TRKC cells prepared as described above were treated with heterobifunctional compound CPD-031 at 0.1 nM, 1 nM, 10 nM, 100 nM and 1000 nM for 16 hours.
# (§2) Cultured cells were washed with cold PBS once and lysed in cold RIPA buffer supplemented with protease inhibitors and phosphatase inhibitors (Beyotime Biotechnology). The solutions were then incubated at 4° C. for 30 minutes with gentle agitation to fully lyse cells. Cell lysates were centrifuged at 13,000 rpm for 10 minutes at 4° C. and pellets were discarded. Total protein concentrations in the lysates were determined by BCA assays (Beyotime Biotechnology). Cell lysates were mixed with Laemmli loading buffer to 1× and heated at 99° C. for 5 min. Proteins were resolved on SDS-PAGE and visualized by chemiluminescence. Images were taken by a ChemiDoc MP Imaging system (Bio-Rad). Protein bands were quantitated using the software provided by Bio-Rad.
# human full length TRKC = target: T2, human full length TRKC (Homo sapiens, UniProt Q16288); assay: TRKC degradation in NIH3T3-TRKC cells (Western blot); conditions: 0.1 nM to 1000 nM, 16 hours, Western blot (FIG. 4C)
# T2 construct: lentivirus directing expression of human full length TRKB or TRKC; expressed in transfected cells; host or cells: NIH3T3 cells, lentiviral transduction, puromycin selection
# Method: (§3) NIH3T3 cells were infected with lentivirus directing expression of human full length TRKB or TRKC. Cells were then selected using 1 ug/ml puromycin to establish NIH3T3-TRKB and NIH3T3-TRKC cell lines that stably expressed human TRKB or TRKC, respectively.
# as §1, §2
# TPM3-TRKA fusion protein = target: T3, TPM3-TRKA fusion protein (Homo sapiens, UniProt P04629); assay: TPM3-TRKA degradation in KM12 cells (Western blot); conditions: 16 hours, TRK protein, immunoblot
# T3 construct: TPM3 (N-terminal part of tropomyosin alpha-3, natural fusion partner); endogenous in cells; host or cells: KM12 colon cancer cells; the other entry of the earlier key: TPM3 (P06753, Tropomyosin alpha-3 chain)
# How it was run: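 KM12 cells treated with compound at 10 nM or 100 nM for 16 h, lysed in RIPA, and TRK protein measured by immunoblot with TRK-specific antibody and chemiluminescence band quantitation. Percent degradation binned: −, none; +, <50%; ++, ≥50% but <80%; +++, ≥80%.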
# human full length TRKB = target: T4, human full length TRKB (Homo sapiens, UniProt Q16620); assay: TRKB degradation in NIH3T3-TRKB cells (Western blot); conditions: 0.1 nM to 1000 nM, 16 hours, Western blot (FIG. 4B)
# T4 construct: lentivirus directing expression of human full length TRKB or TRKC; expressed in transfected cells; host or cells: NIH3T3 cells, lentiviral transduction, puromycin selection
# Method: as §3, §1, §2
# [1] = tested on: TRKA G595R mutated KM12 cells; assay: Cell viability assay in TRKA G595R mutated KM12 cells (CellTiter-Glo); conditions: Homo sapiens, 72 h, 3 days
# Method: KM12, TRKA G595R mutated KM12, HEL, and other cells were cultured at 37° C. with 5% CO2 in DMEM or RPMI 1640 Medium supplemented with 10% fetal bovine serum. Cells were authenticated using the short tandem repeat (STR) assays. Mycoplasma test results were negative.
# Cells were seeded at a density of 5000 cells per well in 96-well assay plates and treated with test compounds following a 11-point 3-fold serial dilution. Three days later, cell viability was determined using the CellTiter-Glo assay kit (Promega) according to the manufacturer's instructions. The dose-response curves were determined and IC50 values were calculated using the GraphPad Prism software following a nonlinear regression (least squares fit) method.
# The activities of selected compounds on cell viability (IC50 values) and TMP3-TRKA degradation (percentage degradation at 10 nM) in KM12 cells or KM12-G595R mutated KM12 cells (KM12-G595R) are listed in Table 2.
# T3 sequence (P04629 with tags, fused parts or gaps): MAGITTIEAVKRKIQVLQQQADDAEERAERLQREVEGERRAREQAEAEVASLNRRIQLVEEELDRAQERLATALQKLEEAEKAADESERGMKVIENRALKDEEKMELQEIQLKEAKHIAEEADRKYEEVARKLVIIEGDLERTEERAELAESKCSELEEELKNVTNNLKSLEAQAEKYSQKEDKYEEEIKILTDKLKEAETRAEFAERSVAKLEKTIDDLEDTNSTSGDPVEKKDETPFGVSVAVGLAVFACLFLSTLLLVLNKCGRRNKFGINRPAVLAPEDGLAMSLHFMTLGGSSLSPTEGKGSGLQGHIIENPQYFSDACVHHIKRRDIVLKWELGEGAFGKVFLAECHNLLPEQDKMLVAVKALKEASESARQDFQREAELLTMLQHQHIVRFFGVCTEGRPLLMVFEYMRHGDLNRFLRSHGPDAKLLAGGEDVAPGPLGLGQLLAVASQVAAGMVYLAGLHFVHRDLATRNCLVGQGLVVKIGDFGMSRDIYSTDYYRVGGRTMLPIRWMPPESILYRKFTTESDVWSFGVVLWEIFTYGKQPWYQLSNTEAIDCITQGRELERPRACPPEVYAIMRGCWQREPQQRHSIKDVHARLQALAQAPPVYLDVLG
# T4 sequence (Q16620 32-822): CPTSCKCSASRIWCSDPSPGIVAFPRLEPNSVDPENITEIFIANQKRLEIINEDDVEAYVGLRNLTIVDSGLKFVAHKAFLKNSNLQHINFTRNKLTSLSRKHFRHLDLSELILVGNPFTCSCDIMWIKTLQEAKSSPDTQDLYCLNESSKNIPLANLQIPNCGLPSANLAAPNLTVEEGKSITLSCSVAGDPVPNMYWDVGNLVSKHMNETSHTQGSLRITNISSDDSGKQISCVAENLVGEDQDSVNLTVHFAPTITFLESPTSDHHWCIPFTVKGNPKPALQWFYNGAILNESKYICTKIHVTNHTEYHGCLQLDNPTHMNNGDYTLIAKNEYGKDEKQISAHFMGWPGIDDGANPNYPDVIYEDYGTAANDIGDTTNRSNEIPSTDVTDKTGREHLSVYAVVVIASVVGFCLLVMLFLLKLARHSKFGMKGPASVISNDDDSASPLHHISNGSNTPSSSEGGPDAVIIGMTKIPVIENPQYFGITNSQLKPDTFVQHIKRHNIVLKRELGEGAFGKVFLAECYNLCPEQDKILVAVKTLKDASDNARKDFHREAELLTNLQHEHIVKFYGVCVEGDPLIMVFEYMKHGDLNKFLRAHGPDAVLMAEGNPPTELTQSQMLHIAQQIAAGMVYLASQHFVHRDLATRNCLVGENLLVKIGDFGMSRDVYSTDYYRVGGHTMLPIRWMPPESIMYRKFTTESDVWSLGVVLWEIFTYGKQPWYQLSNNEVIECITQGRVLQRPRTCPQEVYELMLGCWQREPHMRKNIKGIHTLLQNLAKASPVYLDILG
# T1 sequence (P04629 33-796): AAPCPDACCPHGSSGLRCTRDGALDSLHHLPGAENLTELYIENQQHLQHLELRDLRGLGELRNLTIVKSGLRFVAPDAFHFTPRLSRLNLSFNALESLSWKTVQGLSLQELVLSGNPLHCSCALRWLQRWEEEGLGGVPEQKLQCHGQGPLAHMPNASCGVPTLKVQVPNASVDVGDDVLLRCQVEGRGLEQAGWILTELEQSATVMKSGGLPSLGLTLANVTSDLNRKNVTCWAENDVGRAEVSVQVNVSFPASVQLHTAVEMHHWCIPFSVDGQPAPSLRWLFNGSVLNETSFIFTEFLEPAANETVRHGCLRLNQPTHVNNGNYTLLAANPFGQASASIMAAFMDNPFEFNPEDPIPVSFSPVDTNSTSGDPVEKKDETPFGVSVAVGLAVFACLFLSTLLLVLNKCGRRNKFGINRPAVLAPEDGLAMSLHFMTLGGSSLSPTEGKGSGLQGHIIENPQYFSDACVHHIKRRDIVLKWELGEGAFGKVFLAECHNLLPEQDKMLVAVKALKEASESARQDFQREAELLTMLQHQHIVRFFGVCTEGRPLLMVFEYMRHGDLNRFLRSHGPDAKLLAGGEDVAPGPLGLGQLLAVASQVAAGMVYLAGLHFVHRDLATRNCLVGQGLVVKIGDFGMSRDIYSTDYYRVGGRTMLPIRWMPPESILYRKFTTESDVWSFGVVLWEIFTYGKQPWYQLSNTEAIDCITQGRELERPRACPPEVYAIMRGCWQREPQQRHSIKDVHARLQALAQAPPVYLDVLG
# T2 sequence (Q16288 32-839): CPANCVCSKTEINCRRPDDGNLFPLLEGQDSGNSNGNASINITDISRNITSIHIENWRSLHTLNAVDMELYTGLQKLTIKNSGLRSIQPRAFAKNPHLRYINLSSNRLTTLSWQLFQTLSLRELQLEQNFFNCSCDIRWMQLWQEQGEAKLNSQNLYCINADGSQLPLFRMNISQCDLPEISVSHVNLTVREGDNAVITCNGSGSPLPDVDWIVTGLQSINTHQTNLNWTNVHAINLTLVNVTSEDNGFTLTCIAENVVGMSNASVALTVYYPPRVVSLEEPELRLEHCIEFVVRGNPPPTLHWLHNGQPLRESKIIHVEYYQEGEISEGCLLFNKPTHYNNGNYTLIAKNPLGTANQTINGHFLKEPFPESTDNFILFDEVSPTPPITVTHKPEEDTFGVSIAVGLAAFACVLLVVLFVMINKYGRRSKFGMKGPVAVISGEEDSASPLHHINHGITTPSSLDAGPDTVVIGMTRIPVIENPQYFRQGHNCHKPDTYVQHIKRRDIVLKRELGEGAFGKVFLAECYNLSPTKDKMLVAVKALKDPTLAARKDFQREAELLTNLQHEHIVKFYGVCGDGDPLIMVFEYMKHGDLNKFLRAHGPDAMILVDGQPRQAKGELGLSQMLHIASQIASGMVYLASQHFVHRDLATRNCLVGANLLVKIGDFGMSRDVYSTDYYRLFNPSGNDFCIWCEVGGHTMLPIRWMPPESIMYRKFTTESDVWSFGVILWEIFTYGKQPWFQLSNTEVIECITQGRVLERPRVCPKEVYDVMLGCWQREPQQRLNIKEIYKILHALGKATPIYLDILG
smiles,measurement,setting,value
"COCCN1C[C@@H](NC(=O)Nc2c(C)c(-c3cnc(N4CCN(CCNc5ccc6c(c5)C(=O)N(C5CCC(=O)NC5=O)C6=O)CC4)nc3)nn2-c2ccccc2)[C@H](c2cccc(F)c2)C1 (stereo partly drawn) [CPD-031, 1-(3-(2-(4-(2-((2-(2,6-dioxopiperidin-3-yl)-1,3-dioxoisoindolin-5-yl)amino)ethyl)piperazin-1-yl)pyrimidin-5-yl)-4-methyl-1-phenyl-1H-pyrazol-5-yl)-3-((3S,4R)-4-(3-fluorophenyl)-1-(2-methoxyethyl)pyrrolidin-3-yl)urea]",IC50,KM12 cells,2.04 nM
same,wildtype TRKA protein levels in HEL cells,wildtype TRKA protein,significantly reduced
same,TRKC protein levels,human full length TRKC,minimal reduction
same,inhibition at 0.01 µM,TPM3-TRKA fusion protein; 10 nM,> 80%
same,inhibition at 0.1 µM,TPM3-TRKA fusion protein; 100 nM,> 80%
same,TRKB protein levels,human full length TRKB,minimal reduction
same,IC50,[1],6.11 nM
